# Assay results from patent US10821276B2, “System and method to locally deliver therapeutic agent to inner ear” (The Trustees of Columbia University in the City of New York, priority 2012, dated 2020).
# Where “and” joins values, the source holds several entries; their conditions need not be identical. Identical values can stand only once.
# How the values were obtained:
# [1] = intact RWM, cited from earlier work
# [2] = Permeability of one pore estimated from diffusion coefficient and membrane thickness (P=D/h); 1% area perforation improvement; details: for Ppore: D/h, membrane thickness 10 μm, guinea pig
# Excerpt: From Fick's first law, diffusion is described by J=−D∇ϕ (1) where J is diffusion flux in mol/m^2*s, D is the diffusion coefficient in m^2/s, and ϕ is the concentration in mol/l. Then from a one-dimensional simplification of the pore
# [formula] This can be further simplified with the gradient is uniform across the pore to obtain
# [formula] where x is the axis through the pore in m, cx is the concentration at both ends in mol/l, and h is the RWM thickness in m. Then from the definition of flux
# [formula] the permeability of the membrane is Flux=−PA(c1−c0) (5) where P=D/h is the permeability in m/s.
# Thus the permeability of one pore can be estimated from the diffusion coefficient and the thickness of the membrane (10 μm, guinea pig).
# [3] = Diffusion of 500 μM rhodamine B across RWM in Franz Cell, with and without manual perforation (10 μm / 100 μm needle); type: in vitro ADME, guinea pig
# Protocol: In another embodiment, a model for measuring diffusion across a guinea pig RWM, was developed and tested. The model is applicable for analysis of the RWM both with and without microperforations. Semicircular canals were removed from the pigs and RWM exposed prior to perforation. In the exemplary embodiment, the cochlea, sparing the RWM, was embedded in a 3D-printed acrylic holder using hybrid dental composite and light cured to adapt the round window niche to a 3 ml Franz™ Cell. The Franz™ Cell is a widely recognized standardized method for studying transdermal drug delivery. Microperforations were created with a 10 μm diameter needle (as shown in FIG. 32) and examined with fluorescent light microscopy (FSX-100, as shown in FIG. 31) as a function of time exposure.
# In the exemplary embodiment show in FIGS. 33-34, a Franz Cell was customized in accordance with the present disclosure to include an adapter to allow analysis of a very small membrane in the Franz Cell. The adaptor depicted in FIGS. 33B and 34 was manufactured with a 3-dimensional printer, though alternative manufacturing techniques (and suitable materials) are contemplated to be within the scope of the disclosure. The adaptor includes a downwardly extending protrusion or lip (see reference numerals “A” and “B” in FIG. 33) which are configured to engage the Receptor portion of the Franz Cell.
# Similarly, FIGS. 37A-C illustrate various Z-stacked perforation images which were compiled from 60 images taken at 5 μm intervals of RWM with perforation: A) bright field microscopy; B) bright field microscopy post diffusion with RhoB; C) Fluorescent microscopy
# Manual perforations made with 10 μm needle tip produce an elliptical hole (see arrow in FIG. 38) with axes 30 μm (26-34)×47 μm (44-50). In one example, a manual perforation with 100 μm needle tip created an elliptical tear in the membrane Measuring […]×460 μm, as shown in FIG. 38 (in which the dot “D” indicates tip size).
# [4] = Diffusion of 1 mM Rhodamine B across RWM in static Franz diffusion cells, with and without 12.5 μm microperforation; type: in vitro ADME, guinea pig; details: for time to reach 10 μM: expected
# Protocol: The diffusion across guinea pig RWM, with and without microperforation, was developed and tested: cochleae, sparing the RWM, were embedded in 3D-printed acrylic holders using hybrid dental composite and light cured to adapt the round window niche to 3 ml Franz diffusion cells. Perforations were created with 12.5 μm diameter needles and examined with light microscopy. Diffusion of 1 mM Rhodamine B across RWM in static diffusion cells was measured via fluorescence microscopy.
# In order to carry out this analysis, diffusion of RhoB through the RWM was performed on 12 Hartley Strain Guinea Pigs in a modified diffusion cell at room temperature. Franz™ Cell-type diffusion cells (PermeGear, Inc., Hellertown, Pa.) are made of borosilicate glass and have a 5 mm orifice and a 3 ml receptor volume with flat ground joints (FIG. 30). The cell consists of three parts (FIG. 33): donor chamber, membrane, and receptor chamber.
# The donor chamber was filled with 0.3 ml of 1 mM RhoB in PBS meeting the conditions for continuous infinite dosing. Donor chamber was covered with Parafilm® for the duration of the experiment. Drug application surface was determined by size of RWM.
# Guinea pig RWM was embedded in an acrylic holder with dental composites (FIG. 34). The acrylic holder was designed and 3D printed (Objet 24, Stratasys, MN) to allow for adaptation of the round window niche containing RWM to the diffusion cell. Dental composites (Dentsply, Milford, Del.) included primer (Prime & Bond® NT™) and a urethane modified Bis-GMA resin (TPH Spectra™) which were light cured at 20 s intervals with a 470 nm light emitting diode greater than 500 mW/cm^2. The diffusion cell was assembled with two custom expanded Polytetraflurane (PTFE) gaskets, 1.5 mm thick, to prevent leakage from the donor or receptor chambers at the diffusion cell/membrane interface. The acrylic holder was tested for reactivity with RhoB and was inert for >48 hours. The RWM was equilibrated in PBS solution for 30 minutes prior to application of RhoB. Membranes were embedded and equilibrated within 2 hours of euthanasia.
# Microperforations were introduced in the RWM with manual application of a minutien insect pin (Size 000, 12.5 μm diameter tip, 250 μm diameter shaft) under a binocular microscope. All membranes were imaged before and after diffusion study using bright field, phase contrast or fluorescent microscopy and Z-stacking. Imaging was used to confirm the presence or absence of membrane perforation. 60 images at […] intervals were taken and compiled to create one image. ImageJ (Rasband, W. S., Image J, U.S. National Institutes of Health, Bethesda, Md.) was used to calculate the size of the membrane and, if present, perforation.
# The receptor chamber was filled with 3 ml of PBS and continuously stirred at 650 rpm with a cylindrical Teflon® magnetic stirbar to allow rapid mixing of contents without development of a vortex. Sampling port allowed for extraction of fluid samples at various time points to monitor progression of diffusion. The set up and sampling conditions were validated for consistency in the following categories: 1) diffusion cell dimensions, 2) stir bar speed, and 3) sampling frequency, to increase the precision of results across experiments^23.
# Sampling of the receiver chamber was made at 12 predetermined times over 24 hours and analyzed with fluorescent microscopy. At each time point 90 μL was removed using a stretched syringe from the center of the receptor chamber and the volume was replaced with 90 μL of fresh PBS. These diffusion experiments are considered static as solution from the receptor chamber is renewed by removal of a set quantity (90 μL) at sampling times and replacement of this volume with fresh medium. The removed 90 μL was then diluted with 360 μL PBS to reduce the effects of evaporation and maintain concentrations within the acceptable detection range of the microscope. The samples were placed on a tilt table to enhance mixing after dilution. […]
# [5] = cited from earlier work; for D: diffusion coefficient
compound,measurement,setting,value
C[C@@H]1C[C@H]2[C@@H]3CCC4=CC(=O)C=C[C@]4(C)[C@@]3(F)[C@@H](O)C[C@]2(C)[C@@]1(O)C(=O)CO [Dexamethasone],PRWM,[1],5.0~35.0 × 10^−8 m/s
CCN(CC)c1ccc2c(-c3ccccc3C(=O)O)c3ccc(=[N+](CC)CC)cc-3oc2c1.[Cl-] [Rhodamine B],predicted value of pore permeability based on the diffusion coefficient,[2]; not told,4×10^−5 m/s
same,enhancement in diffusion,"[3]; 10 μm needle, 30 × 47 μm perforation",160 ×
same,enhancement in diffusion,"[3]; 100 μm needle, 240 × 460 μm elliptical perforation",3500 ×
same,Microperforated KP,[3]; guinea pig,3.21×10^−6 m/s
same,time required to reach 250 μM,[3]; membranes with a small microperforation,8.5 days
same,time required to reach 250 μM,"[3]; unperforated membrane, 250 μM = ½ applied concentration",3.7 years
same,Permeability KP RWM,[4],0.51 ± 0.41 10^−8 ms^−1
same,permeability across the perforation itself,[4],8.3±2.2×10^−5 m/s
same,permeability across the perforation relative to intact membrane,[4],"16,000 times"
same,permeability coefficient of the RWM with microperforations,[4],18.1±6.1×10^−8 m/s
same,time to reach 10 μM,[4]; 3×3 array of perforations,30 min
same,time to diffuse 10 μM across the RWM,[4]; intact membrane,7 days
same,increase in permeability / enhancement in diffusion with microperforation vs intact RWM,"[4]; single 12.5 μm tip microperforation, 0.22% of membrane",35 times
same,time to diffuse 10 μM across the RWM,[4]; single microperforation of approximately 2.5×10^−3 mm^2,under 5 hours
same,time to reach 10 μM,[4]; three perforations,90 min
same,Diffusion Coefficient in water at 25° C. (298 K),[5],4.5 ± 0.4 10^−6 cm^2s^−1 and 4.27 ± 0.04 10^−6 cm^2s^−1
Gentamicin,Ppore,[2],6.82 × 10^−5 m/s
same,D,[5],6.82 × 10^−10 m2/s
same,Diffusion Coefficient in water at 25° C. (298 K),[5],6.82 10^−6 cm^2s^−1
same,PRWM,[1],3.5 ± 4.6 × 10^−8 m/s
C[N+](C)(C)c1ccccc1 [TMPA],Ppore,[2],1.01 × 10^−4 m/s
same,D,[5],1.01 × 10^−9 m2/s
same,permeability of the RWM,[1]; guinea pig model,1.9×10^−8 m/s
same,PRWM,[1],1.9 × 10^−8 m/s
